Measured values published in publication PMC9234962, “Optimization of Peptide Linker-Based Fluorescent Ligands for the Histamine H1 Receptor” (Journal of Medicinal Chemistry, 2022).
Square brackets hold non-standard residues; d marks the D form. Peptide text beside a SMILES is read from it. * marks the point of attachment. Propanoyl(3-Pip(4-O-2-BnPh)) = O=C(CCN1CCC(Oc2ccccc2Cc2ccccc2)CC1)*

How the values were obtained:
Nluc-H1R [1] = molecular target: T1, Nluc-H1R (Homo sapiens, UniProt P35367); assay: NanoBRET competition binding assay (displacement of 1) on Nluc-H1R expressing HEK293T cells; conditions: for Ki / pKi: displacement of 1 (25 nM, KD = 8 nM), whole HEK293T cells, Cheng–Prusoff; for pKi: mean ± SEM, three experiments; for pKi/pKD (H1R): supplementary CSV, unlabeled congeners (pKi)
T1 sequence (P35367 whole entry): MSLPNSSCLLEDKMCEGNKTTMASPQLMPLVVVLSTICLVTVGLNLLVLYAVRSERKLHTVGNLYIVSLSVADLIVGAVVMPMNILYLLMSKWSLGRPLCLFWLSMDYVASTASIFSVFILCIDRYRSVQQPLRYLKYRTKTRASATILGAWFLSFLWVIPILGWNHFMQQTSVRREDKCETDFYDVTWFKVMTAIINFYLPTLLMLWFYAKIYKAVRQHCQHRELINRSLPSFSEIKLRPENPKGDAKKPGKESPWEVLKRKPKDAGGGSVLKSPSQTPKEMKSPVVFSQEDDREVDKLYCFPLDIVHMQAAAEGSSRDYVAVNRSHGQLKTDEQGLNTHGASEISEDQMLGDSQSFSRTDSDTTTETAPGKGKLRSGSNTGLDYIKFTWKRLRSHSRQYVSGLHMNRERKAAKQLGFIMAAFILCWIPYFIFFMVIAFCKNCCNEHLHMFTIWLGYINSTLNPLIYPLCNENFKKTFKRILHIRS

Nluc-H1R [2] = molecular target: T1, Nluc-H1R; assay: NanoBRET saturation binding assay on Nluc-H1R expressing HEK293T cells; set-up: expressed in transfected cells; conditions: saturation binding curves, whole HEK293T cells; for pKD: non-specific with 10 μM mepyramine, mean ± SEM
From the text: Total and non-specific saturation binding curves from NanoBRET saturation binding assay were fitted simultaneously using eq 1: [drawing 4] 1 where Bmax is the maximal specific binding, [B] is the concentration of fluorescent ligand in nM, KD is the equilibrium dissociation constant in nM, M is the slope of the non-specific component, and C is the intercept with the Y axis.

Ki (Nluc-H1R [1]) [nM]	pKi (Nluc-H1R [1])	Compound	Kd (Nluc-H1R [2]) [nM]	pKD (Nluc-H1R [2])	pKi/pKD (H1R) (Nluc-H1R [1])
2400	5.62 ± 0.06	CC(C)[C@H](NC(=O)CCN1CCC(Oc2ccccc2Cc2ccccc2)CC1)C(=O)N[C@@H](CCCCN)C(=O)N[C@@H](C)C(=O)N[C@H](Cc1ccccc1)C(N)=O [Compound 9h, (S)-6-Amino-N-((S)-1-(((R)-1-amino-1-oxo-3-phenylpropan-2-yl)amino)-1-oxopropan-2-yl)-2-((S)-2-(3-(4-(2-benzylphenoxy)piperidin-1-yl)propanamido)-3-methylbutanamido)hexanamide] ({Propanoyl(3-Pip(4-O-2-BnPh))}-VKA[dF]-NH2)	–	–	–
550	6.26 ± 0.14	CC(C)[C@H](NC(=O)CCN1CCC(Oc2ccccc2Cc2ccccc2)CC1)C(=O)N[C@@H](CC(=O)O)C(=O)N[C@@H](C)C(=O)N[C@H](Cc1ccccc1)C(N)=O [Compound 9i, (S)-4-(((S)-1-(((R)-1-Amino-1-oxo-3-phenylpropan-2-yl)amino)-1-oxopropan-2-yl)amino)-3-((S)-2-(3-(4-(2-benzylphenoxy)piperidin-1-yl)propanamido)-3-methylbutanamido)-4-oxobutanoic Acid] ({Propanoyl(3-Pip(4-O-2-BnPh))}-VDA[dF]-NH2)	–	–	–
158	6.80 ± 0.05	CC(C)[C@H](NC(=O)CCN1CCC(Oc2ccccc2Cc2ccccc2)CC1)C(=O)N[C@@H](CO)C(=O)NCC(=O)N[C@H](Cc1ccccc1)C(N)=O [Compound 10a, (S)-N-((S)-1-((2-(((R)-1-Amino-1-oxo-3-phenylpropan-2-yl)amino)-2-oxoethyl)amino)-3-hydroxy-1-oxopropan-2-yl)-2-(3-(4-(2-benzylphenoxy)piperidin-1-yl)propanamido)-3-methylbutanamide] ({Propanoyl(3-Pip(4-O-2-BnPh))}-VSG[dF]-NH2)	–	–	–
309	6.51 ± 0.07	CC(C)[C@H](NC(=O)CCN1CCC(Oc2ccccc2Cc2ccccc2)CC1)C(=O)N[C@@H](CO)C(=O)N[C@H](C(=O)N[C@H](Cc1ccccc1)C(N)=O)C(C)C [Compound 10b, (S)-N-((R)-1-Amino-1-oxo-3-phenylpropan-2-yl)-2-((S)-2-((S)-2-(3-(4-(2-benzylphenoxy)piperidin-1-yl)propanamido)-3-methylbutanamido)-3-hydroxypropanamido)-3-methylbutanamide] ({Propanoyl(3-Pip(4-O-2-BnPh))}-VSV[dF]-NH2)	–	–	–
110	6.96 ± 0.02	CC(C)[C@H](NC(=O)CCN1CCC(Oc2ccccc2Cc2ccccc2)CC1)C(=O)N[C@@H](CO)C(=O)N[C@@H](Cc1ccccc1)C(=O)N[C@H](Cc1ccccc1)C(N)=O [Compound 10c, (S)-N-((S)-1-(((S)-1-(((R)-1-Amino-1-oxo-3-phenylpropan-2-yl)amino)-1-oxo-3-phenylpropan-2-yl)amino)-3-hydroxy-1-oxopropan-2-yl)-2-(3-(4-(2-benzylphenoxy)piperidin-1-yl)propanamido)-3-methylbutanamide] ({Propanoyl(3-Pip(4-O-2-BnPh))}-VSF[dF]-NH2)	–	–	–
95	7.02 ± 0.08	CC(C)[C@H](NC(=O)CCN1CCC(Oc2ccccc2Cc2ccccc2)CC1)C(=O)N[C@@H](CO)C(=O)N[C@@H](Cc1ccc(O)cc1)C(=O)N[C@H](Cc1ccccc1)C(N)=O [Compound 10d, (S)-N-((S)-1-(((S)-1-(((R)-1-Amino-1-oxo-3-phenylpropan-2-yl)amino)-3-(4-hydroxyphenyl)-1-oxopropan-2-yl)amino)-3-hydroxy-1-oxopropan-2-yl)-2-(3-(4-(2-benzylphenoxy)piperidin-1-yl)propanamido)-3-methylbutanamide] ({Propanoyl(3-Pip(4-O-2-BnPh))}-VSY[dF]-NH2)	–	–	–
339	6.47 ± 0.03	CC(C)[C@H](NC(=O)CCN1CCC(Oc2ccccc2Cc2ccccc2)CC1)C(=O)N[C@@H](CO)C(=O)N[C@@H](CO)C(=O)N[C@H](Cc1ccccc1)C(N)=O [Compound 10e, (S)-N-((S)-1-(((S)-1-(((R)-1-Amino-1-oxo-3-phenylpropan-2-yl)amino)-3-hydroxy-1-oxopropan-2-yl)amino)-3-hydroxy-1-oxopropan-2-yl)-2-(3-(4-(2-benzylphenoxy)piperidin-1-yl)propanamido)-3-methylbutanamide] ({Propanoyl(3-Pip(4-O-2-BnPh))}-VSS[dF]-NH2)	–	–	–
95	7.02 ± 0.08	CC(C)[C@H](NC(=O)CCN1CCC(Oc2ccccc2Cc2ccccc2)CC1)C(=O)N[C@@H](CO)C(=O)N[C@@H](CC(N)=O)C(=O)N[C@H](Cc1ccccc1)C(N)=O [Compound 10f, (S)-N1-((R)-1-Amino-1-oxo-3-phenylpropan-2-yl)-2-((S)-2-((S)-2-(3-(4-(2-benzylphenoxy)piperidin-1-yl)propanamido)-3-methylbutanamido)-3-hydroxypropanamido)succinamide] ({Propanoyl(3-Pip(4-O-2-BnPh))}-VSN[dF]-NH2)	–	–	–
126	6.90 ± 0.04	CC(C)[C@H](NC(=O)CCN1CCC(Oc2ccccc2Cc2ccccc2)CC1)C(=O)N[C@@H](CO)C(=O)N[C@@H](Cc1cnc[nH]1)C(=O)N[C@H](Cc1ccccc1)C(N)=O [Compound 10g, (S)-N-((S)-1-(((S)-1-(((R)-1-Amino-1-oxo-3-phenylpropan-2-yl)amino)-3-(1H-imidazol-4-yl)-1-oxopropan-2-yl)amino)-3-hydroxy-1-oxopropan-2-yl)-2-(3-(4-(2-benzylphenoxy)piperidin-1-yl)propanamido)-3-methylbutanamide] ({Propanoyl(3-Pip(4-O-2-BnPh))}-VSH[dF]-NH2)	–	–	–
186	6.73 ± 0.05	CC(C)[C@H](NC(=O)CCN1CCC(Oc2ccccc2Cc2ccccc2)CC1)C(=O)N[C@@H](CO)C(=O)N[C@@H](CCCCN)C(=O)N[C@H](Cc1ccccc1)C(N)=O [Compound 10h, (S)-6-Amino-N-((R)-1-amino-1-oxo-3-phenylpropan-2-yl)-2-((S)-2-((S)-2-(3-(4-(2-benzylphenoxy)piperidin-1-yl)propanamido)-3-methylbutanamido)-3-hydroxypropanamido)hexanamide] ({Propanoyl(3-Pip(4-O-2-BnPh))}-VSK[dF]-NH2)	–	–	–
174	6.76 ± 0.04	CC(C)[C@H](NC(=O)CCN1CCC(Oc2ccccc2Cc2ccccc2)CC1)C(=O)N[C@@H](CO)C(=O)N[C@@H](CC(=O)O)C(=O)N[C@H](Cc1ccccc1)C(N)=O [Compound 10i, (S)-4-(((R)-1-Amino-1-oxo-3-phenylpropan-2-yl)amino)-3-((S)-2-((S)-2-(3-(4-(2-benzylphenoxy)piperidin-1-yl)propanamido)-3-methylbutanamido)-3-hydroxypropanamido)-4-oxobutanoic Acid] ({Propanoyl(3-Pip(4-O-2-BnPh))}-VSD[dF]-NH2)	–	–	–
–	–	CC(C)[C@H](NC(=O)CCN1CCC(Oc2ccccc2Cc2ccccc2)CC1)C(=O)N[C@@H](CO)C(=O)N[C@@H](CC(N)=O)C(=O)N[C@@H](Cn1cc(COc2ccc(/C=C/C3=[N+]4C(=Cc5ccc(-c6cccs6)n5[B-]4(F)F)C=C3)cc2)nn1)C(N)=O [Compound 22a, (S)-N1-((S)-1-Amino-3-(4-((4-((E)-2-(5,5-difluoro-7-(thiophen-2-yl)-5H-5λ^4,6λ^4-dipyrrolo[1,2-c:2’,1’-f][1,3,2]diazaborinin-3-yl)vinyl)phenoxy)methyl)-1H-1,2,3-triazol-1-yl)-1-oxopropan-2-yl)-2-((S)-2-((S)-2-(3-(4-(2-benzylphenoxy)piperidin-1-yl)propanamido)-3-methylbutanamido)-3-hydroxypropanamido)succinamide]	28	7.55 ± 0.07	–
–	–	C[C@H](NC(=O)CCN1CCC(Oc2ccccc2Cc2ccccc2)CC1)C(=O)N[C@@H](C)C(=O)N[C@@H](C)C(=O)N[C@@H](Cn1cc(COc2ccc(/C=C/C3=[N+]4C(=Cc5ccc(-c6cccs6)n5[B-]4(F)F)C=C3)cc2)nn1)C(N)=O [Compound 22b, (S)-N-((S)-1-Amino-3-(4-((4-((E)-2-(5,5-difluoro-7-(thiophen-2-yl)-5H-5λ^4,6λ^4-dipyrrolo[1,2-c:2’,1’-f][1,3,2]diazaborinin-3-yl)vinyl)phenoxy)methyl)-1H-1,2,3-triazol-1-yl)-1-oxopropan-2-yl)-2-((S)-2-((S)-2-(3-(4-(2-benzylphenoxy)piperidin-1-yl)propanamido)propanamido)propanamido)propenamide]	20	7.70 ± 0.05	–
89	–	(S)-N-((S)-1-(((S)-1-(((S)-1-Amino-1-oxo-3-phenylpropan-2-yl)amino)-3-(4-hydroxyphenyl)-1-oxopropan-2-yl)amino)-3-hydroxy-1-oxopropan-2-yl)-2-(3-(4-(2-benzylphenoxy)piperidin-1-yl)propanamido)-3-methylbutanamide [Compound 11a]	–	–	6.36

Compound	Ki (Nluc-H1R [1]) [nM]	pKi (Nluc-H1R [1])	Kd (Nluc-H1R [2]) [nM]	pKD (Nluc-H1R [2])	pKi/pKD (H1R) (Nluc-H1R [1])
(S)-N1-((S)-1-Amino-1-oxo-3-phenylpropan-2-yl)-2-((S)-2-((S)-2-(3-(4-(2-benzylphenoxy)piperidin-1-yl)propanamido)-3-methylbutanamido)-3-hydroxypropanamido)succinimide [Compound 11b]	437	6.36 ± 0.22	–	–	7.05
